Measured values taken from patent US6521635B1, “Inhibition of MXR transport by acridine derivatives” (priority 2000, dated 2003).

What was measured:
[1] = tested on: MRP-overexpressing MCF-7/VP cells; experiment: In vitro cytotoxicity assay (sulforhodamine B staining); assay type: cell-based, human
Procedure: Reversal of resistance was determined in cytotoxicity assays using the sulforhodamine staining (Skehan et al. (1990) J. Natl. Cancer Inst. 82: 1107-1112). Briefly, cells were harvested and seeded at a density of 2000 cells/well for the colon cancer lines and 4000 cells/well for the breast cancer cell lines in flat-bottom 96-well plates. The cells were incubated for 24 h at 37° C. to allow attachment prior to addition of the drugs. Mitoxantrone and topotecan at various concentrations were added to the cells with or without the reversal agent and were incubated at 37° C. in a fully humidified atmosphere of 5% CO2 for 96 h. Each concentration was tested in triplicate and the controls were done in replicates of eight.
After incubation, the cells were fixed in TCA and stained with sulforhodamine B (SRB) solution (0.4% wt/vol in 1% acetic acid) (Sigma Chemical, St Louis, Mo.). Optical densities were read on a Bio-Rad plate reader (Hercules, Calif.) at an absorbance of 540 nm.

Pgp (S1-B1-20 cells) = target: T1, Pgp (S1-B1-20 cells) (Homo sapiens, UniProt P08183); experiment: Calcein AM efflux assay (FACS); assay type: cell-based
T1 construct: The S1-B1-20 cells overexpress Pgp; endogenous in cells; host or cells: S1-B1-20 (Pgp-overexpressing subline of S1 colon carcinoma cells)
T1 sequence (P08183 whole entry): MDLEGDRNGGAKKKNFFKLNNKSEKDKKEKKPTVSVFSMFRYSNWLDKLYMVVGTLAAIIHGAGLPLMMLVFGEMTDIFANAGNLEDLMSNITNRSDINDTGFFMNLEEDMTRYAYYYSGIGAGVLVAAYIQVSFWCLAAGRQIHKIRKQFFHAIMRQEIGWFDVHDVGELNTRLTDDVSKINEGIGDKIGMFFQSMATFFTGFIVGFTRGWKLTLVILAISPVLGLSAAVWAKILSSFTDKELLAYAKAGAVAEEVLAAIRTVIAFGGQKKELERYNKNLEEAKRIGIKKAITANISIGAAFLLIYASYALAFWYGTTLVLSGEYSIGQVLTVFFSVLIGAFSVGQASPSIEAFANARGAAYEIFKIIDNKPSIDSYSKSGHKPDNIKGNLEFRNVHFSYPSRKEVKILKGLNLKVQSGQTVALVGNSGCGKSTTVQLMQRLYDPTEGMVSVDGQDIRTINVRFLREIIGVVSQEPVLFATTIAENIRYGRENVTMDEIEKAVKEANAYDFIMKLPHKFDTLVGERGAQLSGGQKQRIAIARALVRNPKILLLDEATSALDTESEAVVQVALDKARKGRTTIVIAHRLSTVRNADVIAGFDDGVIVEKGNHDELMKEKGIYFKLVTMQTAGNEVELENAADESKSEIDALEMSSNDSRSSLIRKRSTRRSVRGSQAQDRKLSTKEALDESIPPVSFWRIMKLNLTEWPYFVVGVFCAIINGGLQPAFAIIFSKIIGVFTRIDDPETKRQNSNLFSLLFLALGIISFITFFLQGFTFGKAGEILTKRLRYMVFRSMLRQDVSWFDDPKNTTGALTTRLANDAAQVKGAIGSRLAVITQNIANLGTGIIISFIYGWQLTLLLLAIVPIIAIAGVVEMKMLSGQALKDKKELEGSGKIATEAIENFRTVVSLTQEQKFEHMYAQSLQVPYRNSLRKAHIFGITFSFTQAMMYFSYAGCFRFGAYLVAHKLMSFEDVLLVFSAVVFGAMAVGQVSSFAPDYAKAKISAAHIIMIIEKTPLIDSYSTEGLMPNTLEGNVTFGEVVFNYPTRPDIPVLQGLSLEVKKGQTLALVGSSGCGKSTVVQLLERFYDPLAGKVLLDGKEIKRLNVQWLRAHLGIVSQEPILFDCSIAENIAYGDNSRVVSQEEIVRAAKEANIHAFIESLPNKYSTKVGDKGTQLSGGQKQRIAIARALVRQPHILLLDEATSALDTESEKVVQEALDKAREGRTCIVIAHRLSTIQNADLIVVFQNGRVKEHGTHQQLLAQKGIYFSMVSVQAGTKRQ
Procedure: The rhodamine and calcein efflux assays were performed as previously described with minor modifications (Lee et al. (1994) Mol. Pharmacol. 46: 627-638; Versantvoort et al. (1995) Int. J. Cancer 63: 855-862.) Suspensions of logarithmic phase cells were obtained from tissue culture flasks by trypsinization and transferred into round-bottom 96-well plates. […] After the efflux period, the cells were washed with DPBS and placed on ice. A FACSort flow cytometer (Becton Dickinson, San Jose, Calif.) with a 488-nm argon laser was used to analyze the samples. Rhodamine 123 or calcein fluorescence was collected after a 530 nm bandpass filter. A minimum of 10,000 events was collected per sample and the samples were gated on forward scatter versus side scatter to exclude clumps and debris; dead cells were excluded based on propidium iodide staining.
Calcein AM can be used to detect both Pgp and MRP-mediated efflux. Calcein permeates the cell in neutral form as an acetomethoxyester, calcein AM. Esterase activity cleaves the AM group leaving calcein as a fluorescent organic anion.

[2] = tested on: S1-M1-80 cells expressing MXR; experiment: In vitro cytotoxicity assay (sulforhodamine B staining); assay type: cell-based, human; design: sensitization to topotecan: dose or concentration left out as unconfirmed
Procedure: (§1) Reversal of resistance was determined in cytotoxicity assays using the sulforhodamine staining (Skehan et al. (1990) J. Natl. […] Briefly, cells were harvested and seeded at a density of 2000 cells/well for the colon cancer lines and 4000 cells/well for the breast cancer cell lines in flat-bottom 96-well plates. The cells were incubated for 24 h at 37° C. to allow attachment prior to addition of the drugs. […] Each concentration was tested in triplicate and the controls were done in replicates of eight. Results are representative of from three to six experiments. […] After incubation, the cells were fixed in TCA and stained with sulforhodamine B (SRB) solution (0.4% wt/vol in 1% acetic acid) (Sigma Chemical, St Louis, Mo.). Optical densities were read on a Bio-Rad plate reader (Hercules, Calif.) at an absorbance of 540 nm.

[3] = as above; assay type: cell-based, human; details: human
Procedure: as §1

MCF-7 parental cells [4] = experiment: as above; assay type: cell-based, human; details: Homo sapiens, MCF7, read-out: IC50 for GF120918 alone; MCF-7 parental cells
Procedure: as §1

S1 parental cells = experiment: as above; assay type: cell-based, human; details: Homo sapiens, read-out: IC50 for GF120918 alone; S1 parental cells
Procedure: as §1

MXR (S1-M1-80 cells) = target: T2, MXR (S1-M1-80 cells) (Homo sapiens, UniProt Q9UNQ0, R482G); experiment: Rhodamine efflux assay (flow cytometry); assay type: cell-based; details: S1-M1-80 cells
T2 construct: express high levels of a mitoxantrone transporter (Miyake et al. (1999) Cancer Res.59: 8-13); endogenous in cells; host or cells: S1-M1-80 (mitoxantrone-selected subline of S1 colon carcinoma cells)
T2 sequence (Q9UNQ0 1-655 R482G): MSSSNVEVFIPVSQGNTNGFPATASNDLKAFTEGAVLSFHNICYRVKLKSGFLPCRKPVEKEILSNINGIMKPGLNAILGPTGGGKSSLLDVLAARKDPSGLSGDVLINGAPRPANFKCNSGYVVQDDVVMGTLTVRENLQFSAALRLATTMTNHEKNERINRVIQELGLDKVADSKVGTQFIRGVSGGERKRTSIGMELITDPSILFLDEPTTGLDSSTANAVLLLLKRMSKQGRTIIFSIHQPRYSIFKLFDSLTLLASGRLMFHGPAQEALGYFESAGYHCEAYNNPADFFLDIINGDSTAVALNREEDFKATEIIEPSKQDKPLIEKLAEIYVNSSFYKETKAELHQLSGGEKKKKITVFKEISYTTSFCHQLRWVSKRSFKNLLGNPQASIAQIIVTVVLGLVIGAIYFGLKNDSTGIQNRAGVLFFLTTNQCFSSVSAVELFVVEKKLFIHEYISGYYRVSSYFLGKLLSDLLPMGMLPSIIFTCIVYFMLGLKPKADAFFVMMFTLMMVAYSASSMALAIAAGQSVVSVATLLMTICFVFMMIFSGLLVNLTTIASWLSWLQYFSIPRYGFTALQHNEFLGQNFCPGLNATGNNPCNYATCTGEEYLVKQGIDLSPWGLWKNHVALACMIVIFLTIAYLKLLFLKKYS
Procedure: (§2) To provide confirmation, rhodamine efflux assays were performed. […] The results are depicted in FIG. 2.

MCF-7 parental cells [5] = experiment: Rhodamine efflux assay (flow cytometry); assay type: cell-based, human
Procedure: as §2

[6] = tested on: P-glycoprotein overexpressing S1-B1-20 cells; experiment: Confocal microscopy of mitoxantrone / rhodamine 123 accumulation; assay type: cell-based, human
Procedure: (§3) Cells were seeded in 35 mm glass-bottom microwell dishes (MatTek Corporation, Ashland, Mass.) at a density of 4000 cells/dish and incubated for 48 hours in phenol red-free IMEM supplemented with 10% fetal calf serum. […] The cells were analyzed using a Zeiss LSM 410 confocal laser scanning microscope equipped with a […] argon laser exciting mitoxantrone at 568 nm. Emitted light passed through a 590 nm long-pass filter.

[7] = tested on: MXR-expressing S1-M1-80 cells; experiment: as above; assay type: cell-based, human
Procedure: as §3

block of calcein AM efflux (Pgp (S1-B1-20 cells); Pgp-expressing S1-B1-20 cells): able to block efflux
type of inhibition of Pgp (Pgp (S1-B1-20 cells); calcein-AM efflux): non-competitive inhibitor
concentration at which an effect on rhodamine efflux was observed (MXR (S1-M1-80 cells)): 1000 nM
SMILES: COc1cc2c(cc1OC)CN(CCc1ccc(NC(=O)c3cccc4c(=O)c5cccc(OC)c5[nH]c34)cc1)CC2 [GF120918]
IC50 ([1]; Homo sapiens, MCF7-VP, read-out: IC50 for GF120918 alone, MCF-7/VP cells): 7.5 µM
reversing MRP-mediated resistance ([1]; cytotoxicity reversal studies with etoposide, MRP-overexpressing MCF-7 VP-16 cells (data not shown)): ineffective
sensitization to mitoxantrone ([2]; GF120918 at 1 μM, S1-M1-80 cells expressing MXR): 1850 fold
IC50 ([2]; Homo sapiens, S1-M1-80, read-out: IC50 for GF120918 alone, S1-M1-80 cells): 2.5 µM
sensitization to topotecan ([2]; S1-M1-80 cells): 23 fold
IC50 at 96 h [3]: 3.6 µM
IC50 (MCF-7 parental cells [4]): 40 µM
IC50 (S1 parental cells): 15.2 µM
effect on rhodamine efflux (MCF-7 parental cells [5]): No effect
rhodamine 123 accumulation ([6]; 0.4 μM GF120918): enhanced
mitoxantrone fluorescence ([6]; 0.4 μM GF120918 during mitoxantrone incubation (data not shown)): level comparable to that of the parental line
effect on mitoxantrone fluorescence ([7]; 0.4 μM GF120918): less marked
mitoxantrone level (accumulation, nuclear staining) ([7]; 10 μM and 50 μM GF120918 (data not shown)): full reversal had been achieved
concentration for full reversal of the rhodamine accumulation defect ([7]; S1-M1-80 cells): 10 µM
concentration at which the rhodamine 123 accumulation defect was reversed ([7]; S1-M1-80 cells (data not shown)): 2 µM
